# Columns and labels:
# Format in all cases: cell-based
# [1] = tested on: Vibrio cholerae; test: Expected efficacy of antibiotic agents; settings: Gram: neg
# [2] = tested on: Enterococcus faecium; test: Expected efficacy of antibiotic agents; settings: Gram: pos
# [3] = tested on: Acinetobacter calcoaceticus; test: Expected efficacy of antibiotic agents; settings: Gram: neg
# [4] = tested on: Clostridium perfringens; settings: expected efficacy; Gram: anaer
# [5] = tested on: Chlamydia trachomatis; test: Expected efficacy of antibiotic agents; settings: Gram: n/a
# [6] = tested on: Shigella flexneri; test: Expected efficacy of antibiotic agents; settings: Gram: neg
# [7] = tested on: Proteus mirabilis; test: Expected efficacy of antibiotic agents; settings: Gram: neg
# [8] = tested on: Citrobacter diversus; test: Expected efficacy of antibiotic agents; settings: Gram: neg
# [9] = tested on: Shigella sonnei; test: Expected efficacy of antibiotic agents; settings: Gram: neg
# [10] = tested on: Staphylococcus aureus (MSSA); test: Expected efficacy of antibiotic agents; settings: Gram: pos
# [11] = tested on: Viridans group streptococci; test: Expected efficacy of antibiotic agents; settings: Gram: pos
# [12] = tested on: Pseudomonas aeruginosa; test: Expected efficacy of antibiotic agents; settings: Gram: neg
# [13] = tested on: Clostridium difficile; test: Expected efficacy of antibiotic agents; settings: Gram: anaer
# [14] = tested on: Klebsiella oxytoca; test: Expected efficacy of antibiotic agents; settings: Gram: neg
# [15] = tested on: Neisseria gonorrhoeae; test: Expected efficacy of antibiotic agents; settings: Gram: neg
# [16] = tested on: Acinetobacter baumannii; test: Expected efficacy of antibiotic agents; settings: Gram: neg
# [17] = tested on: Serratia marcescens; test: Expected efficacy of antibiotic agents; settings: Gram: neg
# [18] = tested on: Chlamydia psittaci; settings: expected efficacy; Gram: n/a
# [19] = tested on: Enterobacter cloacae; test: Expected efficacy of antibiotic agents; settings: Gram: neg
# [20] = tested on: Corynebacterium jeikeium; test: Expected efficacy of antibiotic agents; settings: Gram: pos
# [21] = tested on: Shigella boydii; test: Expected efficacy of antibiotic agents; settings: Gram: neg
# [22] = tested on: Enterococcus faecalis; test: Expected efficacy of antibiotic agents; settings: Gram: pos
# [23] = tested on: Enterobacter aerogenes; test: Expected efficacy of antibiotic agents; settings: Gram: neg
# [24] = tested on: Citrobacter freundii; test: Expected efficacy of antibiotic agents; settings: Gram: neg
# [25] = tested on: Escherichia coli; test: Expected efficacy of antibiotic agents; settings: Gram: neg
# [26] = tested on: Legionella pneumophila; settings: expected efficacy; Gram: neg
# [27] = tested on: Methicillin resistant staph aureus (MRSA); test: Expected efficacy of antibiotic agents; settings: Gram: pos
# [28] = tested on: Campylobacter jejuni; test: Expected efficacy of antibiotic agents; settings: Gram: neg
# [29] = tested on: Moraxella catarrhalis; test: Expected efficacy of antibiotic agents; settings: Gram: neg
# [30] = tested on: Mycoplasma pneumoniae; test: Expected efficacy of antibiotic agents; settings: Gram: n/a
# [31] = tested on: Streptococcus pneumoniae; test: Expected efficacy of antibiotic agents; settings: Gram: pos
# [32] = tested on: Haemophilus influenzae; test: Expected efficacy of antibiotic agents; settings: Gram: neg
# [33] = tested on: Streptococcus pyogenes; test: Expected efficacy of antibiotic agents; settings: Gram: pos
# [34] = tested on: Bacteroides fragilis; test: Expected efficacy of antibiotic agents; settings: Gram: anaer
# [35] = tested on: Enterobacter sakazakii; test: Expected efficacy of antibiotic agents; settings: Gram: neg
# [36] = tested on: Diphtheroids; test: Expected efficacy of antibiotic agents; settings: Gram: pos
# [37] = tested on: Streptococcus agalactiae; test: Expected efficacy of antibiotic agents; settings: Gram: pos
# [38] = tested on: Acinetobacter lwoffii; test: Expected efficacy of antibiotic agents; settings: Gram: neg
# [39] = tested on: Neisseria meningitidis; test: Expected efficacy of antibiotic agents; settings: Gram: neg
# [40] = tested on: Chlamydia pneumoniae; test: Expected efficacy of antibiotic agents; settings: Gram: n/a
# [41] = tested on: Bordetella pertussis; test: Expected efficacy of antibiotic agents; settings: Gram: neg
# [42] = tested on: Proteus vulgaris; test: Expected efficacy of antibiotic agents; settings: Gram: neg
# [43] = tested on: Klebsiella (Calymmatobacterium) granulomatis; test: Expected efficacy of antibiotic agents; settings: Gram: neg
# [44] = tested on: Shigella dysenteriae; test: Expected efficacy of antibiotic agents; settings: Gram: neg
# [45] = tested on: Corynebacterium urealyticum; test: Expected efficacy of antibiotic agents; settings: Gram: pos
# [46] = tested on: Klebsiella pneumoniae; test: Expected efficacy of antibiotic agents; settings: Gram: neg
# [47] = tested on: Staphylococcus epidermidis; test: Expected efficacy of antibiotic agents; settings: Gram: pos
# [48] = tested on: Haemophilus ducreyi; test: Expected efficacy of antibiotic agents; settings: Gram: neg
# [49] = tested on: Peptostreptococcus; test: Expected efficacy of antibiotic agents; settings: Gram: pos
# [50] = tested on: Pseudomonas fluorescens; test: Expected efficacy of antibiotic agents; settings: Gram: neg
# [51] = tested on: Yersinia pestis; settings: expected efficacy; Gram: neg
# [52] = tested on: Brucella species; settings: expected efficacy; Gram: neg
# [53] = tested on: Providencia rettgeri; test: Expected efficacy of antibiotic agents; settings: Gram: neg
# [54] = tested on: Haemophilus parainfluenzae; test: Expected efficacy of antibiotic agents; settings: Gram: neg
# [55] = tested on: Providencia stuartii; test: Expected efficacy of antibiotic agents; settings: Gram: neg
compound,measurement,setting,value
NC[C@H]1O[C@H](O[C@H]2[C@H](O)[C@@H](O[C@H]3O[C@H](CO)[C@@H](O)[C@H](N)[C@H]3O)[C@H](N)C[C@@H]2N)[C@H](N)C[C@@H]1O [Tobramycin],efficacy against Vibrio cholerae,[1],no
same,efficacy against Enterococcus faecium,[2],no
same,efficacy against Acinetobacter calcoaceticus,[3],no
same,efficacy against Clostridium perfringens,[4],no
same,efficacy against Chlamydia trachomatis,[5],no
same,efficacy against Shigella flexneri,[6],yes
same,efficacy against Proteus mirabilis,[7],yes
same,efficacy against Citrobacter diversus,[8],yes
same,efficacy against Shigella sonnei,[9],yes
same,efficacy against Staphylococcus aureus (MSSA),[10],no
same,efficacy against Viridans group streptococci,[11],no
same,efficacy against Pseudomonas aeruginosa,[12],yes
same,efficacy against Clostridium difficile,[13],no
same,efficacy against Klebsiella oxytoca,[14],yes
same,efficacy against Neisseria gonorrhoeae,[15],no
same,efficacy against Acinetobacter baumannii,[16],no
same,efficacy against Serratia marcescens,[17],yes
same,efficacy against Chlamydia psittaci,[18],no
same,efficacy against Enterobacter cloacae,[19],yes
same,efficacy against Corynebacterium jeikeium,[20],no
same,efficacy against Shigella boydii,[21],yes
same,efficacy against Enterococcus faecalis,[22],no
same,efficacy against Enterobacter aerogenes,[23],yes
same,efficacy against Citrobacter freundii,[24],yes
same,efficacy against Escherichia coli,[25],yes
same,efficacy against Legionella pneumophila,[26],no
same,efficacy against Methicillin resistant staph aureus (MRSA),[27],no
same,efficacy against Campylobacter jejuni,[28],yes
same,efficacy against Moraxella catarrhalis,[29],yes
same,efficacy against Mycoplasma pneumoniae,[30],no
same,efficacy against Streptococcus pneumoniae,[31],no
same,efficacy against Haemophilus influenzae,[32],yes
same,efficacy against Streptococcus pyogenes,[33],no
same,efficacy against Bacteroides fragilis,[34],no
same,efficacy against Enterobacter sakazakii,[35],yes
same,efficacy against Diphtheroids,[36],no
same,efficacy against Streptococcus agalactiae,[37],no
same,efficacy against Acinetobacter lwoffii,[38],no
same,efficacy against Neisseria meningitidis,[39],no
same,efficacy against Chlamydia pneumoniae,[40],no
same,efficacy against Bordetella pertussis,[41],no
same,efficacy against Proteus vulgaris,[42],yes
same,efficacy against Klebsiella (Calymmatobacterium) granulomatis,[43],yes
same,efficacy against Shigella dysenteriae,[44],yes
same,efficacy against Corynebacterium urealyticum,[45],no
same,efficacy against Klebsiella pneumoniae,[46],yes
same,efficacy against Staphylococcus epidermidis,[47],no
same,efficacy against Haemophilus ducreyi,[48],yes
same,efficacy against Peptostreptococcus,[49],no
same,efficacy against Pseudomonas fluorescens,[50],yes
same,efficacy against Yersinia pestis,[51],yes
Colistimethate,efficacy against Vibrio cholerae,[1],no
same,efficacy against Enterococcus faecium,[2],no
same,efficacy against Chlamydia trachomatis,[5],no
same,efficacy against Proteus mirabilis,[7],no
same,efficacy against Staphylococcus aureus (MSSA),[10],no
same,efficacy against Viridans group streptococci,[11],no
same,efficacy against Brucella species,[52],no
same,efficacy against Pseudomonas aeruginosa,[12],yes
same,efficacy against Clostridium difficile,[13],no
same,efficacy against Klebsiella oxytoca,[14],yes
same,efficacy against Neisseria gonorrhoeae,[15],no
same,efficacy against Serratia marcescens,[17],no
same,efficacy against Chlamydia psittaci,[18],no
same,efficacy against Enterobacter cloacae,[19],yes
same,efficacy against Corynebacterium jeikeium,[20],no
same,efficacy against Enterococcus faecalis,[22],no
same,efficacy against Enterobacter aerogenes,[23],yes
same,efficacy against Escherichia coli,[25],yes
same,efficacy against Legionella pneumophila,[26],no
same,efficacy against Methicillin resistant staph aureus (MRSA),[27],no
same,efficacy against Providencia rettgeri,[53],no
same,efficacy against Moraxella catarrhalis,[29],no
same,efficacy against Mycoplasma pneumoniae,[30],no
same,efficacy against Streptococcus pneumoniae,[31],no
same,efficacy against Streptococcus pyogenes,[33],no
same,efficacy against Bacteroides fragilis,[34],no
same,efficacy against Enterobacter sakazakii,[35],yes
same,efficacy against Diphtheroids,[36],no
same,efficacy against Streptococcus agalactiae,[37],no
same,efficacy against Neisseria meningitidis,[39],no
same,efficacy against Haemophilus parainfluenzae,[54],no
same,efficacy against Chlamydia pneumoniae,[40],no
same,efficacy against Bordetella pertussis,[41],no
same,efficacy against Proteus vulgaris,[42],no
same,efficacy against Klebsiella (Calymmatobacterium) granulomatis,[43],yes
same,efficacy against Corynebacterium urealyticum,[45],no
same,efficacy against Klebsiella pneumoniae,[46],yes
same,efficacy against Staphylococcus epidermidis,[47],no
same,efficacy against Peptostreptococcus,[49],no
same,efficacy against Pseudomonas fluorescens,[50],yes
same,efficacy against Providencia stuartii,[55],no
